Laboratory results published in patent US20140011799A1 (Bristol-Myers Squibb Company, priority 2012, published 2014).

How the values were obtained:
[1] = biological target: T1, Endothelial lipase (EL) (Homo sapiens, UniProt Q9Y5X9); assay: Endothelial lipase (EL) enzymatic assay, fluorescent substrate A10070 in DMPG vesicles; format: biochemical; conditions: EL from conditioned media of HT-1080 cells; compound preincubated 30 min at 37° C; read-out: EL IC50
T1 construct: HT-1080 cells that were transformed using RAGE technology (Athersys) to overexpress endogenous EL; endogenous in cells; conditioned medium used
T1 sequence (Q9Y5X9 21-500): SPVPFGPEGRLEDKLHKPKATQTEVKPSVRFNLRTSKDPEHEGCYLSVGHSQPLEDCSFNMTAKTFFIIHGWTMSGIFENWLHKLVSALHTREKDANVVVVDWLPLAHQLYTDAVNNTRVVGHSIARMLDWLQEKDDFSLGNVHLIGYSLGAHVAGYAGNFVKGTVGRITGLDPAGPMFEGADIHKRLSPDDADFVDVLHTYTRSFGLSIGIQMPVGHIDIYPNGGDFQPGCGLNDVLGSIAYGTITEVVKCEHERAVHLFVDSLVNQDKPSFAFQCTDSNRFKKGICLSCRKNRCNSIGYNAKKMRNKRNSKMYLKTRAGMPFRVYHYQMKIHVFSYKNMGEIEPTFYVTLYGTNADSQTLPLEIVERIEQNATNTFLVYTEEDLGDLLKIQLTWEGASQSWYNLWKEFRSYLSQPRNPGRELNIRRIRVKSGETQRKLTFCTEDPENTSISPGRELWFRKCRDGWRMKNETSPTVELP
Outline: (§1)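 Vesicles prepared: A10070 dried with DMPG, resuspended in HEPES pH 8.0/NaCl/EDTA, sonicated on ice. Enzyme incubated with compound 30 min at 37° C. Reaction started with 1:10 diluted vesicles. Fluorescence (490/530 nm) followed 60 min; slope from 300–900 secs gives rate.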

[2] = biological target: T2, hepatic lipase (HL) (Homo sapiens, UniProt P11150); assay: Hepatic lipase (HL) enzymatic assay, fluorescent substrate A10070 in DMPG vesicles; format: biochemical; conditions: HL partially purified from conditioned media of COS cells; compound preincubated 30 min at 37° C; read-out: HL IC50
T2 construct: made in house; host or cells: COS cells (conditioned medium, partially purified)
T2 sequence (P11150 23-499): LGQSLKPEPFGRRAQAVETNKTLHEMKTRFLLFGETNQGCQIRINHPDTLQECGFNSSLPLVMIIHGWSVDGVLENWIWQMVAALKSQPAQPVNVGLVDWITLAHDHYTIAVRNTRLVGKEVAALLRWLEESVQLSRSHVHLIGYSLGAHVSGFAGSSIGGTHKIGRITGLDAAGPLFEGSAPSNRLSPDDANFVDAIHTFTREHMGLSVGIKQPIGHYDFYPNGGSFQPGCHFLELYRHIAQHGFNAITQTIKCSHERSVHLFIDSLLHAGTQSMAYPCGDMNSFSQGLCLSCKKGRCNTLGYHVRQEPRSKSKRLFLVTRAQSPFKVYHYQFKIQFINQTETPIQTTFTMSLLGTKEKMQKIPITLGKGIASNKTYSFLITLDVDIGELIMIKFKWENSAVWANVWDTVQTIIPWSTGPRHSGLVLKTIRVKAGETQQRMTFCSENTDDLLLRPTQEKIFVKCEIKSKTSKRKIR
Outline: as §1

| Compound | IC50 [1] [nM] | IC50 [2] [nM] |
| --- | --- | --- |
| NS(=O)(=O)NCc1nnc(C(c2nc3ccc(-c4cnn(-c5ccc(F)cc5)c4)cc3s2)S(=O)(=O)Cc2ccccc2)o1 (stereo not drawn) [Example 138, N-((5-((benzylsulfonyl)(6-(1-(4-fluorophenyl)-1H-pyrazol-4-yl)-1,3-benzothiazol-2-yl)methyl)-1,3,4-oxadiazol-2-yl)methyl)sulfamide] | < 10 | < 10 |
| NS(=O)(=O)NCc1nnc(C(c2nc3ccc(-c4ccc(F)c(Cl)c4)cc3s2)S(=O)(=O)Cc2ccccc2)o1 (stereo not drawn) [Example 139, N-((5-((benzylsulfonyl)(6-(3-chloro-4-fluorophenyl)-1,3-benzothiazol-2-yl)methyl)-1,3,4-oxadiazol-2-yl)methyl) sulfamide] | < 10 | < 10 |
| NS(=O)(=O)NCc1nnc(C(c2nc3ccc(-c4ccc(Cl)c(F)c4)cc3s2)S(=O)(=O)Cc2ccccc2)o1 (stereo not drawn) [Example 140, N-((5-((benzylsulfonyl)(6-(4-chloro-3-fluorophenyl)-1,3-benzothiazol-2-yl)methyl)-1,3,4-oxadiazol-2-yl)methy) sulfamide] | < 10 | < 10 |
| CN(C)C(=O)c1ccc(-c2ccc3nc(C(c4nnc(CNS(=O)(=O)NC(=O)OC(C)(C)C)o4)S(=O)(=O)Cc4ccccc4)sc3c2)cc1Cl (stereo not drawn) [Example 141, tert-butyl (((5-((benzylsulfonyl)(6-(3-chloro-4-(dimethylcarbamoyl)phenyl)-1,3-benzothiazol-2-yl)methyl)-1,3,4-oxadiazol-2-yl)methyl)sulfamoyl) carbamate] | < 10 | 50 |
| CC(C)(C)OC(=O)NS(=O)(=O)NCc1nnc(C(c2nc3ccc(-c4cc(F)cc(Cl)c4)cc3s2)S(=O)(=O)Cc2ccccc2)o1 (stereo not drawn) [Example 142, tert-butyl (((5-((benzylsulfonyl)(6-(3-chloro-5-fluorophenyl)-1,3-benzothiazol-2-yl)methyl)-1,3,4-oxadiazol-2-yl)methyl)sulfamoyl)carbamate] | < 10 | < 10 |
| NS(=O)(=O)NCc1nnc(C(c2nc3ccc(-c4cc(Cl)cc(Cl)c4)cc3s2)S(=O)(=O)Cc2ccccc2)o1 (stereo not drawn) [Example 143, N-((5-((benzylsulfonyl)(6-(3,5-dichlorophenyl)-1,3-benzothiazol-2-yl)methyl)-1,3,4-oxadiazol-2-yl)methyl) sulfamide] | < 10 | < 10 |
| NS(=O)(=O)NCc1nnc(C(c2nc3ccc(-c4cc(F)cc(Cl)c4)cc3s2)S(=O)(=O)Cc2ccccc2)o1 (stereo not drawn) [Example 144, N-((5-((benzylsulfonyl)(6-(3-chloro-5-fluorophenyl)-1,3-benzothiazol-2-yl)methyl)-1,3,4-oxadiazol-2-yl)methyl) sulfamide] | < 10 | < 10 |
| NS(=O)(=O)NCc1nnc(C(c2nc3ccc(-c4cc(F)nc(F)c4)cc3s2)S(=O)(=O)Cc2ccccc2)o1 (stereo not drawn) [Example 145, N-((5-((benzylsulfonyl)(6-(2,6-difluoro-4-pyridinyl)-1,3-benzothiazol-2-yl)methyl)-1,3,4-oxadiazol-2-yl)methyl)sulfamide] | < 10 | 77 |
| CN(C)C(=O)c1ccc(-c2ccc3nc(C(c4nnc(CNS(N)(=O)=O)o4)S(=O)(=O)Cc4ccccc4)sc3c2)cc1Cl (stereo not drawn) [Example 146, 4-(2-((benzylsulfonyl)(5-((sulfamoylamino)methyl)-1,3,4-oxadiazol-2-yl)methyl)-1,3-benzothiazol-6-yl)-2-chloro-N,N-dimethylbenzamide] | < 10 | 391 |
| CC(C)(C)OC(=O)NS(=O)(=O)NCc1nnc(C(c2nc3ccc(-c4ccc(C(=O)N5CCOCC5)c(Cl)c4)cc3s2)S(=O)(=O)Cc2ccccc2)o1 (stereo not drawn) [Example 147, 2-methyl-2-propanyl [({5-[(benzylsulfonyl){6-[3-chloro-4-(4-morpholinylcarbonyl)phenyl]-1,3-benzothiazol-2-yl}methyl]-1,3,4-oxadiazol-2-yl}methyl)sulfamoyl] carbamate] | 17 | 626 |
| NS(=O)(=O)NCc1nnc(C(c2nc3ccc(-c4ccc(Cl)c(Cl)c4)cc3s2)S(=O)(=O)Cc2ccccc2)o1 (stereo not drawn) [Example 148, N-((5-((benzylsulfonyl)(6-(3,4-dichlorophenyl)-1,3-benzothiazol-2-yl)methyl)-1,3,4-oxadiazol-2-yl)methyl)sulfamide] | < 10 | < 10 |
| NS(=O)(=O)NCc1nnc(C(c2nc3ccc(-c4ccc(C(=O)N5CCOCC5)c(Cl)c4)cc3s2)S(=O)(=O)Cc2ccccc2)o1 (stereo not drawn) [Example 149, N-((5-((benzylsulfonyl)(6-(3-chloro-4-(4-morpholinylcarbonyl)phenyl)-1,3-benzothiazol-2-yl)methyl)-1,3,4-oxadiazol-2-yl)methyl)sulfamide] | < 10 | 121 |
| C=CCS(=O)(=O)C(c1nnc(CNS(N)(=O)=O)o1)c1nc2ccc(-c3ccc(C(=O)N4CCOCC4)cc3)cc2s1 (stereo not drawn) [Example 150, N-((5-((allylsulfonyl)(6-(4-(4-morpholinylcarbonyl)phenyl)-1,3-benzothiazol-2-yl)methyl)-1,3,4-oxadiazol-2-yl)methyl)sulfamide] | < 10 | 560 |
| COCCS(=O)(=O)C(c1nnc(CNS(N)(=O)=O)o1)c1nc2ccc(-c3cc(F)cc(Cl)c3)cc2s1 (stereo not drawn) [Example 151, N-((5-((6-(3-chloro-5-fluorophenyl)-1,3-benzothiazol-2-yl)((2-methoxyethyl)sulfonyl)methyl)-1,3,4-oxadiazol-2-yl)methyl)sulfamide] | < 10 | < 10 |
| COCCS(=O)(=O)C(c1nnc(CNS(=O)(=O)NC(=O)OC(C)(C)C)o1)c1nc2ccc(-c3cc(F)cc(Cl)c3)cc2s1 (stereo not drawn) [Example 153, tert-butyl (((5-((6-(3-chloro-5-fluorophenyl)-1,3-benzothiazol-2-yl)((2-methoxyethyl)sulfonyl)methyl)-1,3,4-oxadiazol-2-yl)methyl)sulfamoyl) carbamate] | 19 | 17 |
| CC(C)C(O)C(=O)NCc1nnc(C(c2nc3ccc(-c4ccccc4)cc3s2)S(C)(=O)=O)o1 (stereo not drawn) [Example 154, 2-hydroxy-3-methyl-N-((5-((methylsulfonyl)(6-phenyl-1,3-benzothiazol-2-yl)methyl)-1,3,4-oxadiazol-2-yl)methyl)butanamide] | 54 | 25 |
| CC(C)(C)[C@H](O)C(=O)NCc1nnc(C(c2nc3ccc(-c4ccccc4)cc3s2)S(C)(=O)=O)o1 (stereo partly drawn) [Example 155, (2S)-2-hydroxy-3,3-dimethyl-N-((5-((methylsulfonyl)(6-phenyl-1,3-benzothiazol-2-yl)methyl)-1,3,4-oxadiazol-2-yl)methyl)butanamide] | 137 | 26 |
| CN(C)C(=O)O[C@H](C(=O)NCc1nnc(C(c2nc3ccc(-c4ccccc4)cc3s2)S(C)(=O)=O)o1)C(C)(C)C (stereo partly drawn) [Example 156, (1S)-2,2-dimethyl-1-(((5-((methylsulfonyl)(6-phenyl-1,3-benzothiazol-2-yl)methyl)-1,3,4-oxadiazol-2-yl)methyl)carbamoyl) propyl dimethylcarbamate] | 57 | 71 |
| CCOCC(=O)NCc1nnc(C(c2nc3ccc(-c4ccccc4)cc3s2)S(C)(=O)=O)o1 (stereo not drawn) [Example 157, 2-ethoxy-N-((5-((methylsulfonyl)(6-phenyl-1,3-benzothiazol-2-yl)methyl)-1,3,4-oxadiazol-2-yl)methyl)acetamide] | 223 | 34 |
| Cn1cc(-c2cc3sc(C(c4nnc(CNS(N)(=O)=O)o4)S(=O)(=O)Cc4ccccc4)nc3cc2F)cn1 (stereo not drawn) [Example 158, N-((5-((benzylsulfonyl)(5-fluoro-6-(1-methyl-1H-pyrazol-4-yl)-1,3-benzothiazol-2-yl)methyl)-1,3,4-oxadiazol-2-yl)methyl) sulfamide] | < 10 | 21 |
| COc1cc2nc(C(c3nnc(CNS(=O)(=O)NC(=O)OC(C)(C)C)o3)S(C)(=O)=O)sc2cc1-c1cnn(C)c1 (stereo not drawn) [Example 159, 2-methyl-2-propanyl {[(5-{[5-methoxy-6-(1-methyl-1H-pyrazol-4-yl)-1,3-benzothiazol-2-yl](methylsulfonyl)methyl}-1,3,4-oxadiazol-2-yl)methyl]sulfamoyl}carbamate] | 13 | 14 |
